pIC50: −log10 of the molar value. One block for each molecule: values may come before it.
Legend:
[1] = biological target: T1, amyloid (aggregated Aβ1-40) (Homo sapiens, UniProt P05067); experiment: Measurement of amyloid affinity: in vitro binding test, inhibition of [125I]3′-I-BTA-0 binding
T1 construct: Aβ1-40 (Peptide Institute) was dissolved in phosphate buffer (pH 7.4); purchased Peptide Institute
Procedure: Affinity of the present compounds with amyloid was examined by the following in vitro binding tests.
(1) Aβ1-40 (Peptide Institute) was dissolved in phosphate buffer (pH 7.4) and shaken at 37° C. for 62-72 hours, to obtain a suspension of aggregated Aβ (concentration: 1 mg/mL equivalent, hereinafter referred to as amyloid suspension in these Examples).
(3) According to the method described in a literature (Wang, Y., et al., J. Labeled Compounds Radiopharmaceut. 44, 5239 (2001)), [^125I]2-(3′-iodo-4′-aminophenyl)benzothiazole (hereinafter referred to as [^125I]3′-I-BTA-0) was prepared from a labeling precursor 2-(4′-aminophenyl)benzothiazole, and dissolved in ethanol. [^125I]sodium iodide of 12-71 MBq (10-30 μL in volume) was used for the production, to obtain [^125I]3′-I-BTA-0 of 1-22 MBq immediately after the synthesis.
(5) Samples in which [^125I]3′-I-BTA-0, each compound for evaluation and amyloid were dissolved in a 0.1% bovine serum albumin-containing phosphate buffer (pH 7.4) at final concentrations shown in Table 2 were prepared. The resulting samples were placed in each well (about 0.3 mL in volume) of a 96-well microplate.
(6) The microplate filled with the sample solutions was shaken at a given rate (400 rpm) at 22° C. for 3 hours. Then, each sample solution was filtered through a glass fiber filter (trade name: Mulutiscreen™-FC, manufactured by Millipore), to separate the [^125I3′-I-BTA-0 attached to amyloid from the [^125I]3′-I-BTA-0 free from amyloid.
(7) The glass fiber filter used for the filtration of each sample solution was washed with a 0.1% bovine serum albumin-containing phosphate buffer (pH 7.4) (0.5 mL×5), and radioactivity of the glass fiber filter was measured with an autowell gamma system (manufactured by Aloka, Type: ARC-301B).
(8) Separately, a solution containing 15 μmol/L of 6-Me-BTA-2, 400 pmol/L of [^125I]3′-I-BTA-0 and 1 μmol/L of Aβ1-40 in a 0.1% bovine serum albumin-containing phosphate buffer (pH 7.4) was prepared and subjected to the same procedures as described above in (6) and (7) to measure a radioactivity level. The measured radioactivity level was defined as the background radioactivity level, and used in the calculation of the inhibition ratio (hereinafter referred to as BG).
(9) Using the radioactivity levels measured above in (7) and (8), the inhibition ratio was determined by the following formula (1).
A graph in which values converted by probit transformation from the obtained inhibition ratios were plotted relative to logarithms of concentrations of compounds for evaluation was prepared to obtain an approximate straight line by the least square method. Using the line, the concentration of each compound for evaluation was determined, at which the radioactivity level is half of the level of the sample free from each compound for evaluation, and was defined as a 50% inhibition concentration of each compound (hereinafter referred to as IC50% value). Using the value as an indicator, affinity of each compound for evaluation with amyloid (aggregated Aβ1-40) was evaluated.

amyloid (amylin) = biological target: T2, amyloid (amylin) (Homo sapiens, UniProt P10997); experiment: Inhibition of binding of Thioflavin T to amyloid derived from amylin; conditions: Thioflavin T 5 μmol/L, amyloid 2.6 μmol/L
T2 construct: Amylin (human) (manufactured by Wako) was dissolved in phosphate buffer (pH 7.4); purchased Wako
T2 sequence (P10997 34-70 limits assumed): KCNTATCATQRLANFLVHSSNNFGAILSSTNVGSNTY
Procedure: Amylin is an amyloid accumulating in pancreas of type II diabetes.
(3) The amyloid suspension was dissolved in 50 mM phosphate buffer (pH 7.4) at a concentration of amylin of 15 μM.
(4) Samples in which each compound for evaluation and amyloid were dissolved in a 50 mM phosphate buffer (pH 7.4) at final concentrations shown in Table 9 were prepared.
(5) A sample in which 100 μL of 50 mM phosphate buffer (pH 7.4) and 50 μL of 50 mM glycin-NaOH buffer (pH 8.5) were mixed was made as a blank, and subjected to the same procedure as in (4) and used for a calculation of inhibition ratio (hereinafter referred to as BG).
(6) The microplate filled with the sample solutions was left to stand at room temperature for 30 hours. Then, fluorescence strength of each sample solution was measured (measurement conditions: excitation wavelength of 446nm, emission wavelength of 490 nm) with microplate reader (type: SPECTRA MAX GEMINI XS, manufactured by Molecular Devices) (hereinafter, A denotes the fluorescence strength in a sample with zero (0) concentration of each compound for evaluation, and B denotes the fluorescence strength in a sample with 1.5 μmol/L or higher concentration of each compound for evaluation).
(7) Using the fluorescence strength measured above in (6), the following formula (5): […]
was used to determine the inhibition ratio.

[2] = tested on: Salmonella typhimurium TA98; experiment: Reverse mutation test (Ames test), TA98; format: cell-based; conditions: maximum 5000 μg/plate
Procedure: (§1) In order to examine gene mutagenicity of Compounds 1, 2 and 4, reverse mutation test using Salmonella typhimurium TA98 and TA100 (hereinafter referred to as Ames test) was conducted.
(§2) The test was conducted without addition of S9mix and with addition of S9mix. Dimethylsulfoxide was used as a negative control. A positive control was 2-(2-furyl)-3-(5-nitro-2-furyl)acrylamide in case S9mix was not added, and 2-aminoanthracene in case S9 mix was added.
(§3) The amount of each sample to be added to the test plate was 7 dosages (geometric ratio 4) with the maximum dose being 5000 μg/plate. After a sample to be examined and a strain (TA98 or TA100), or a sample to be examined, S9mix and the strain were mixed together, the mixture was multilayered using soft agar on a medium of a test plate, and then incubated at 37° C. for 48 hours.
(§4) In order to examine gene mutagenicity of Compound 8, reverse mutation test using Salmonella typhimurium TA98 and TA100 (hereinafter referred to as Ames test) was conducted.
(§5) The test was conducted without addition of S9mix and with addition of S9mix. Dimethylsulfoxide was used as a negative control. A positive control was 2-(2-furyl)-3-(5-nitro-2-furyl)acrylamide in case S9mix was not added, and 2-aminoanthracene in case S9mix was added.
as §3, with “Compound 8” for “each sample”, “3)” for “4)”, “Compound 8” for “a sample to be examined”, “Compound 8,” for “a sample to be examined,”

[3] = tested on: Salmonella typhimurium TA98 and TA100; experiment: Reverse mutation test (Ames test), overall judgment; format: cell-based; conditions: TA98 and TA100, with and without S9mix
Procedure: as §1, §2, §3, §4, §5
as §3, with “Compound 8” for “each sample”, “3)” for “4)”, “Compound 8” for “a sample to be examined”, “Compound 8,” for “a sample to be examined,”

[4] = tested on: Salmonella typhimurium TA100; experiment: Reverse mutation test (Ames test), TA100; format: cell-based; conditions: maximum 5000 μg/plate
Procedure: as §1, §2, §3, §4, §5
as §3, with “Compound 8” for “each sample”, “3)” for “4)”, “Compound 8” for “a sample to be examined”, “Compound 8,” for “a sample to be examined,”

[5] = Partition coefficient based on the octanol extraction method (logPoctanol); conditions: octanol / 10 mmol/L phosphate buffer (pH 7.4), radioactivity count
Procedure: 10 μL each of the prepared sample solution was respectively added to 2 mL of octanol, further, 2 mL of 10 mmol/L phosphate buffer (pH 7.4) was added, and stirred for 30 seconds. […] Using the obtained radioactivity count, log Poctanol was calculated in accordance with the equation (2).

[6] = Transferability into brain and clearance (Example I-16, Comparative Example I-7); format: in vivo, male Wistar rats; conditions: rats, intravenous injection, two animals
Procedure: Using Compound 6, a time course change of radioactive accumulation in brain of male Wistar rats (7-week old) was measured.
Also, radioactivity (hereinafter referred to as B in this Example) of 0.05 mL of a 1000-fold diluted solution of the injected solution was measured in the same manner as above. Using these measurement results, radioactive accumulation per unit weight of brain (% ID/g) at the respective time points was calculated in accordance with the following formula (3).

[7] = Transferability into brain and clearance (Examples II-11, II-12, Comparative Example II-1); conditions: rats, intravenous injection, three animals
Procedure: Using the Compounds 10 and 11, a time course change of radioactive accumulation in brain of male Wistar rats (7-week old) was measured.
The rats were sacrificed by bleeding from abdominal artery, and brains were removed and subjected to measurement of mass of brains and further subjected to measurement of radioactivity (hereinafter referred to as A in this Example) with a single channel analyzer (detector type: SP-20 manufactured by OHYO KOKEN KOGYO Co., Ltd.) 2, 5, 30 and 60 minutes after the injection. Also, radioactivity (hereinafter referred to as B in this Example) of the rest of the whole body was measured in the same manner as above. Using these measurement results, radioactive accumulation per unit weight of brain (% ID/g) at the respective time points were calculated in accordance with the following formula (4).
Three animals were used for experiment at the respective time points.

[8] = Table 6, 7 dosages (geometric ratio 4)
[9] = up to 5000 μg/plate (geometric ratio 4)
[10] = Table 8, 7 dosages (geometric ratio 3)

T1 sequence (P05067 672-711 limits assumed): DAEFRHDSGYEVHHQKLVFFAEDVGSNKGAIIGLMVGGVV

SMILES: Oc1ccc(-c2cn3cc(Br)ccc3n2)cc1 [Compound 1, 6-bromo-2-(4′-hydroxyphenyl)imidazo[1,2-a]pyridine]
- pIC50 [1]: 8.36
- Inhibition ratio (%) of binding of amyloid (amylin) to Thioflavin T (amyloid (amylin); compound 1.5 μmol/L): 8.7%
- Inhibition ratio (%) of binding of amyloid (amylin) to Thioflavin T (amyloid (amylin); compound 15 μmol/L): 41.3%
- Inhibition ratio (%) of binding of amyloid (amylin) to Thioflavin T (amyloid (amylin); compound 30 μmol/L): 27.0%
- Mutagenicity, TA98, with addition of S9mix [2, 8]: Negative
- Mutagenicity, TA98, without addition of S9mix [2, 8]: Negative
- Judgment in the Ames test (gene mutagenicity) [3, 9]: negative
- Mutagenicity, TA100, with addition of S9mix [4, 8]: Negative
- Mutagenicity, TA100, without addition of S9mix [4, 8]: Negative

SMILES: Oc1ccc(-c2cn3cc(I)ccc3n2)cc1 [Compound 2, 2-(4′-hydroxyphenyl)-6-iodoimidazo[1,2-a]pyridine]
- pIC50 [1]: 7.34
- Inhibition ratio (%) of binding of amyloid (amylin) to Thioflavin T (amyloid (amylin); compound 1.5 μmol/L): 11.2%
- Inhibition ratio (%) of binding of amyloid (amylin) to Thioflavin T (amyloid (amylin); compound 15 μmol/L): 16.3%
- Inhibition ratio (%) of binding of amyloid (amylin) to Thioflavin T (amyloid (amylin); compound 30 μmol/L): 32.0%
- Mutagenicity, TA98, with addition of S9mix [2, 8]: Negative
- Mutagenicity, TA98, without addition of S9mix [2, 8]: Negative
- Judgment in the Ames test (gene mutagenicity) [3, 9]: negative
- Mutagenicity, TA100, with addition of S9mix [4, 8]: Negative
- Mutagenicity, TA100, without addition of S9mix [4, 8]: Negative

SMILES: Oc1ccc(-c2cn3cc(I)cnc3n2)cc1 [Compound 4, 2-(4′-hydroxyphenyl)-6-iodoimidazo[1,2-a]pyrimidine]
- pIC50 [1]: 7.27
- Mutagenicity, TA98, with addition of S9mix [2, 8]: Negative
- Mutagenicity, TA98, without addition of S9mix [2, 8]: Negative
- Judgment in the Ames test (gene mutagenicity) [3, 9]: negative
- Mutagenicity, TA100, with addition of S9mix [4, 8]: Negative
- Mutagenicity, TA100, without addition of S9mix [4, 8]: Negative

SMILES: Oc1ccc(-c2cn3cc([125I])ccc3n2)cc1 [Compound 5, [^125I]-2-(4′-hydroxyphenyl)-6-iodoimidazo[1,2-a]pyridine]
- logPoctanol value [5]: 1.6

SMILES: Cc1ccc2nc(-c3ccc(N(C)C)cc3)sc2c1 [Compound 6-Me-BTA-2, 6-methyl-2-[4′-(N,N-dimethylamino)phenyl]benzothiazole, reference compound]
- pIC50 [1]: 7.60

SMILES: Oc1ccc(-c2cn3cc(I)ncc3n2)cc1 [Compound 8, 2-(4′-hydroxyphenyl)-6-iodoimidazo[1,2-a]pyrazine]
- Mutagenicity, TA98, with addition of S9mix [2, 10]: Negative
- Mutagenicity, TA98, without addition of S9mix [2, 10]: Negative
- Judgment in the Ames test (gene mutagenicity) ([3]; up to 5000 μg/plate (geometric ratio 3)): negative
- Mutagenicity, TA100, with addition of S9mix [4, 10]: Negative
- Mutagenicity, TA100, without addition of S9mix [4, 10]: Negative

Other lines, results leading:

- pIC50 [1]: 8.00
SMILES: Nc1ccc(-c2nc3ccccc3s2)cc1I [3′-I-BTA-0, 2-(3′-Iodo-4′-aminophenyl)benzothiazole, reference compound]

- pIC50 [1]: 7.26
SMILES: Oc1ccc(-c2cn3cc(OCCCF)ccc3n2)cc1 [Compound 3, 6-(3′-fluoropropoxy)-2-(4′-hydroxyphenyl)imidazo[1,2-a]pyridine]

- logPoctanol value [5]: 1.7
SMILES: Oc1ccc(-c2cn3cc([123I])cnc3n2)cc1 [Compound 9, [^123I]-2-(4′-hydroxyphenyl)-6-iodoimidazo[1,2-a]pyrimidine]

- pIC50 [1]: < 6.00
SMILES: Nc1c(/N=N/c2ccc(-c3ccc(/N=N/c4cc(S(=O)(=O)O)c5ccccc5c4N)cc3)cc2)cc(S(=O)(=O)O)c2ccccc12 [Congo-Red, reference compound]

- logPoctanol value [5]: 2.1
SMILES: CN(C)c1ccc(-c2cn3cc([125I])ccc3n2)cc1 [[^125I]-IMPY, reference compound]

- Radioactive accumulation in brain per unit weight ([6]; after 2 min.): 1.02 % ID/g
- Radioactive accumulation in brain per unit weight ([6]; after 5 min.): 0.99 % ID/g
- Radioactive accumulation in brain per unit weight ([6]; after 30 min.): 0.20 % ID/g
- Radioactive accumulation in brain per unit weight ([6]; after 60 min.): 0.08 % ID/g
- Radioactive accumulation in brain per unit weight ([7]; after 2 min.): 1.19 % ID/g
- Radioactive accumulation in brain per unit weight ([7]; after 5 min.): 0.97 % ID/g
- Radioactive accumulation in brain per unit weight ([7]; after 30 min.): 0.23 % ID/g
- Radioactive accumulation in brain per unit weight ([7]; after 60 min.): 0.09 % ID/g
SMILES: CN(C)c1ccc(-c2cn3cc([123I])ccc3n2)cc1 [^123I-IMPY, reference compound]

Source: patent US20100249408A1, “USE OF NOVEL COMPOUND HAVING AFFINITY FOR AMYLOID, AND PROCESS FOR PRODUCTION OF THE SAME” (NIHON MEDI-PHYSICS CO., LTD., priority 2007, published 2010)
